Each structure is given as a SMILES string. Values joined by “and” are separate entries in the source; they are usually repeats but may differ in a detail not shown here. Identical values can stand only once. Where only a bound is given, the exact number is not on record here.

From BindingDB's records for doi:10.1021/acschembio.6b01133 (Merck & Co. Inc, 2017) come the findings set out here.

Holding throughout (test): RNAP-Inhibition Assay
Holding throughout (conditions): 37 °C

Assay [1] concerns the target DNA-directed RNA polymerase subunit beta (Escherichia coli (strain K12), UniProt P0A8V2). Here is the method:
(§1) Fluorescence-detected RNAP inhibition assays in Tables 1 and 4 were performed using a DNA fragment containing the lacUV5 promoter as a template and the profluorescent ATP analog γ-[2′-(2-benzothiazoyl)-6′-hydroxybenzothiazole]-ATP(BBT-ATP, Jena Biosciences) as a substrate (methods as in ref 32). Fluorescence-detected RNAP inhibition assays in Figure 2C were performed essentially as described in refs 33 and 34. The assay used a proprietary circular single-stranded DNA as a template (Kool NC-45 Universal RNAP Template, Epicenter). […] A total of 5 μL of 20 nM recombinant RNAP in assay buffer [50 mM HEPES (pH = 8.0), 50 mM KCl, 4 mM MgCl2, 5% glycerol (v/v), 1 mM DTT, 0.1 mg mL−1 BSA, and 0.01% Triton X-100 (v/v)] was then added. After a 30 min incubation at RT, 5 μL of assay buffer solution containing 0.04 ng/μL DNA template and rNTPs (ATP, CTP, GTP, UTP; 600 μM each; Lucigen) was added to start the reaction. After incubation for 2 h at 37 °C, 70 μL of Quant-iT RiboGreen RNA Reagent [1:350 dilution in buffer containing 10 mM Tris-HCl (pH = 7.5) and 1 mM EDTA] was added to stop the reaction and develop the signal. The plate was read using a PheraStar Plus plate reader (BMG).

The target of assay [2] is DNA-directed RNA polymerase subunit beta [H526D] (Escherichia coli, H526D). Here is the method:
as §1

The target in assay [3] is DNA-directed RNA polymerase subunit beta [D516V] (Escherichia coli, D516V). Here is the method: as §1
For assay [4], the target named is DNA-directed RNA polymerase subunit beta [S531L] (Escherichia coli, S531L). Here is the method: as §1

Sequence of DNA-directed RNA polymerase subunit beta (P0A8V2 whole entry, the tested form may be a part): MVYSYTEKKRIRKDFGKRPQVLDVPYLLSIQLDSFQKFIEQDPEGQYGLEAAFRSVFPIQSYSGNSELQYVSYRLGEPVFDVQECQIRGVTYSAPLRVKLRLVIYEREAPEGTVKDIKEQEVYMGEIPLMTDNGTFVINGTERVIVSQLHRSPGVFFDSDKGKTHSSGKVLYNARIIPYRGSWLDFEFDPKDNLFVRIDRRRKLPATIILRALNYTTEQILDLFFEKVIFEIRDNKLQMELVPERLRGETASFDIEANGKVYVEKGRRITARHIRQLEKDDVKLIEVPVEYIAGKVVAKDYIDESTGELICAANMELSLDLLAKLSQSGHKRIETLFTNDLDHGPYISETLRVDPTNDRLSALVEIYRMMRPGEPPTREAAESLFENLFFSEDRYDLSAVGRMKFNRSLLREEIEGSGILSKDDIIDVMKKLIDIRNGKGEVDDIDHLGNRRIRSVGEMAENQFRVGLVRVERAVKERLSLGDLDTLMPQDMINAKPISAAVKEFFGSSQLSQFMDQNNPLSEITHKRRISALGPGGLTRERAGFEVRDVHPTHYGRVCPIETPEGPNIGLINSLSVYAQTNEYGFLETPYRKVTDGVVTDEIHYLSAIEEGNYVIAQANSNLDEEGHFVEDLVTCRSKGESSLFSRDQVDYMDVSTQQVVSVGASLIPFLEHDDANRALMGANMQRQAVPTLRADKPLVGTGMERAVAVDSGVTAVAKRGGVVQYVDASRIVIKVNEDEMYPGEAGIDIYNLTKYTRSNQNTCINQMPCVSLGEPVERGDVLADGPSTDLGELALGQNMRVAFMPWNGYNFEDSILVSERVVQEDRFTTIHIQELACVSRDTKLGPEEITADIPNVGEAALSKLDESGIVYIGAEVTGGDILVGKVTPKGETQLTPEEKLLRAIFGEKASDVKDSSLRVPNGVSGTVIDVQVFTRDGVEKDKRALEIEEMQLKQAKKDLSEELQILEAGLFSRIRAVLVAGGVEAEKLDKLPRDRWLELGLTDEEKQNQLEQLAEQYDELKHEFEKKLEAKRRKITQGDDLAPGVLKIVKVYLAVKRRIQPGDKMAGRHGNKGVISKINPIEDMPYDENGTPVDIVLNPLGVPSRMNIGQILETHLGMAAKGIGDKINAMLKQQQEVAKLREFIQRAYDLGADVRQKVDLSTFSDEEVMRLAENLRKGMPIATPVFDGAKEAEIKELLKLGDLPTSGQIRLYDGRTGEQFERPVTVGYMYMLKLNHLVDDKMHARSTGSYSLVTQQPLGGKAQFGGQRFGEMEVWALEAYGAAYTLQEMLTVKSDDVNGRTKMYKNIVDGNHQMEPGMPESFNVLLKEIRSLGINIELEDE

In general, IC50 refers to the concentration that gives 50% inhibition. The low end stands for greater potency, the high end for weaker potency. For `CO[C@H]1/C=C/O[C@@]2(C)Oc3c(C)c(O)c4c(O)c(cc(O)c4c3C2=O)NC(=O)/C(C)=C\C=C\[C@H](C)[C@H](O)[C@@H](C)[C@@H](O)[C@@H](C)[C@H](OC(C)=O)[C@@H]1C` [CB-01-11], the IC50 in assay [1] was 0.03 µM and 0.02 µM; in assay [2], greater than 100 µM; in assay [3], 70 µM; in assay [4], 80 µM.
As to `CC(C)Cc1nnc2c(C(=O)NC3c4ccccc4-c4ccccc43)cccn12` [MRL-436], the IC50 was 2 µM and 3 µM in assay [1]; 3 µM in assay [2]; 4 µM in assay [3]; 4 µM in assay [4].
